According to patent US20240122941A1, “THERAPY BASED ON SYNTHETIC LETHALITY IN SWI/SNF COMPLEX-DYSFUNCTION CANCER” (NATIONAL CANCER CENTER, priority 2020, published 2024):
Like-named read-outs stand apart in the source and are kept apart here.

Legend:
[1] = system: ARID1 deficient cancer cell group versus ARID1 wild-type cell group; test: Experiment comparing sensitivity depending on the presence/absence of ARID1; type: cell-based; conditions: 6 days culture, CellTiter-Glo, FIG. 12; result in words
Source text: Cytotoxic activity of a CBP/P300 inhibitor on ARID1 deficient cancer cells, i.e., A2780 cells (ovarian cancer derived), RMG-V cells (ovarian cancer derived), TOV21G cells (ovarian cancer derived), and OVISE cells (ovarian cancer derived), and ARID1 wild-type cells, i.e., H1048 cells, H460 cells, 786-O cells, H2228 cells, H2009 cells, and H358 cells, was compared.

recombinant p300 = recombinant p300 (Homo sapiens (Human), UniProt Q09472); test: HAT activity inhibiting experiment, SensoLyte HAT (p300) Assay Kit; type: biochemical; conditions: recombinant p300, acetyl-CoA, histone H3 peptide, fluorescence; read-out: HAT activity inhibition IC50
Protocol: 50 μL of Stop Solution was added to quench the reaction. 100 μL of p300 Developer solution diluted 50-fold with an assay buffer was added, and the mixture was incubated for 30 minutes at room temperature under shaded conditions.

[2] = system: H23 cells (pulmonary adenocarcinoma derived, SMARCA2/A4 deficient); test: Cell growth suppression experiment (CellTiter-Glo), H23 cells; type: cell-based; conditions: for IC50: Homo sapiens, NCI-H23, 144 h, cultured for 6 days, CellTiter-Glo; for cell survival rate (%) at treatment with 10 μM, H23: 6 days;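 for all read-outs here: compounds tested as CBP/P300 agents, added one day after plating in 96-well plates with DMEM-F12 plus 10% fetal bovine serum, 0.1% DMSO final, luminescent viability read-out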
[3] = system: DMS114 cells (small cell lung cancer derived, SMARCA2/A4 deficient); test: Cell growth suppression experiment (CellTiter-Glo), DMS114 cells; type: cell-based; conditions: for IC50: Homo sapiens, DMS-114, 144 h, cultured for 6 days, CellTiter-Glo; for cell growth suppression effect on DMS114 cells: result in words
[4] = system: TOV112D cells (small cell ovarian cancer derived, SMARCA2/A4 deficient); test: Cell growth suppression experiment (CellTiter-Glo), TOV112D cells; type: cell-based; conditions: for IC50: Homo sapiens, 144 h, cultured for 6 days, CellTiter-Glo; for cell survival rate (%) at treatment with 10 μM, TOV112D: 6 days;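 for all read-outs here: luminescent viability read-out of TOV112D cells grown in DMEM-F12 with 10% fetal bovine serum, compound exposure starting one day after plating, DMSO at 0.1% final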
[5] = system: H460 cells (pulmonary adenocarcinoma derived, SMARCA2/A4 wild-type); test: Cell growth suppression experiment (CellTiter-Glo), H460 cells; type: cell-based; conditions: Homo sapiens, NCI-H460, 144 h; for viability at 10 µM: 6 days, read-out: cell survival rate (%) at treatment with 10 μM, H460; for IC50: cultured for 6 days, CellTiter-Glo;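 for all read-outs here: luminescent viability read-out, compound added one day after seeding at 0.1% final DMSO, cells grown in DMEM-F12 with 10% fetal bovine serum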
[6] = system: SMARCA2/A4 deficient cells, i.e., H23 cells, DMS114 cells, and TOV112D cells; test: Cell growth suppression experiment, SMARCA2/A4 deficient cells (summary of Example 8); type: cell-based; conditions: H23, DMS114 and TOV112D cells versus H460 cells; result in words
Protocol: Cytotoxic activity of a CBP/P300 on SMARCA2/A4 deficient cells, i.e., H23 cells (pulmonary adenocarcinoma derived), TOV112D cells (small cell ovarian cancer derived), and DMS114 cells (small cell lung cancer derived), and SMARCA2/A4 wild-type cells, i.e., H460 cells (pulmonary adenocarcinoma derived) was compared.
H23 cells, TOV112D cells, DMS114 cells, and H460 cells were cultured under 5% CO2 conditions at 37° C. in a 10% fetal bovine serum and 1% penicillin/streptomycin-containing DMEM-F12 medium.
Cells were seed on a 96-well plate at 250 to 500 cells per well. […] After completion of culture, the cell survival rate was measured using CellTiter-Glo Luminescent Cell Viability Assay (Promega, G770).

[7] = system: JMU-RTK-2 cells (malignant rhabdoid tumor derived, SMARCB1 deficient); test: Selectivity in cell growth suppression, JMU-RTK-2 cells; conditions: for IC50: 144 h; for Selective Index: IC50 of JMU-RTK-2+SMARCB1 cells with respect to IC50 of JMU-RTK-2 cells
Source text: (§1) The cytotoxic activity of a CBP/P300 inhibitor on JMU-RTK-2 cells and JMU-RTK-2+SMARCB1 cells was compared.

[8] = system: G-401 cells (malignant rhabdoid tumor derived, SMARCB1 deficient); test: Cell growth suppression experiment (CellTiter-Glo), G-401 cells; conditions: for IC50: Homo sapiens, G-401, 72 h; for cell survival rate (%) at treatment with 10 μM, G-401: G-401 cells, 10 μM (maximum treatment concentration), 3 days
Protocol: (§2) G-401 cells and G-402 cells were cultured under the conditions of 5% CO2 at 37° C. in a 10% fetal bovine serum and 1% penicillin/streptomycin-containing McCoy's 5A medium. CHLA-06-ATRT cells were cultured under the conditions of 5% CO2 at 37° C. in a 10% B-27 supplement, 20 ng/mL EGF, 20 ng/mL FGF, and 1% penicillin/streptomycin-containing DMEM:F12 medium.

[9] = system: 786-O cells (renal cancer derived, SMARCB1 wild-type); test: Cell growth suppression experiment (CellTiter-Glo), 786-O cells; conditions: Homo sapiens, 786-0, 72 h; for IC50: read-out: IC50 786-O; for viability at 10 µM: read-out: cell survival rate (%) at treatment with 10 μM, 786-O
Protocol: as §2

[10] = system: JMU-RTK-2+SMARCB1 cells (JMU-RTK-2 cells overexpressing SMARCB1); test: Selectivity in cell growth suppression, JMU-RTK-2+SMARCB1 cells; conditions: 144 h
Source text: as §1

[11] = system: SMARCB1 deficient cells, i.e., G-401 cells, G-402 cells, and CHLA-06-ATRT cells; test: Cell growth suppression experiment, SMARCB1 deficient cells (summary of Example 1); conditions: G-401, G-402 and CHLA-06-ATRT cells versus 786-O cells; result in words
Protocol: as §2

CBP bromodomain = CBP bromodomain (Homo sapiens (Human), UniProt Q92793); test: BRD inhibition experiment, CBP bromodomain TR-FRET Assay Kit
[12] = system: CHLA-06-ATRT cells (atypical teratoid/rhabdoid tumor derived, SMARCB1 deficient); test: Cell growth suppression experiment (CellTiter-Glo), CHLA-06-ATRT cells; conditions: 72 h, read-out: IC50 CHLA-06-ATRT
Protocol: as §2

[13] = system: histone H3K27 acetylation in G-401 cells and CHLA-06-ATRT cells; test: Intracellular histone H3K27 acetylation inhibition experiment (Western blotting); type: cell-based; conditions: G-401 and CHLA-06-ATRT cells, 24 hours, FIG. 7
Protocol: G-401 cells (malignant rhabdoid tumor derived) and CHLA-06-ATRT cells (atypical teratoid/rhabdoid tumor derived) were seeded on a 6-well plate at 500000 cells per well. […] After completion of culture, the cells were detached through trypsin treatment. The culture was centrifuged and the supernatant was removed to recover cell pellets. 150 μL of RIPA buffer was added to the cell pellets to lyse the cells to extract the entire protein. Acetylation of histone H3K27 was detected by Western blotting. An anti-acetylation H3K27 antibody (Cell Signaling Technology, 8173) was used for the detection of acetylated H3K27 (FIG. 7).

[14] = system: SMARCB1 deficient cell group versus SMARCB1 wild-type cell group; test: Experiment comparing sensitivity depending on the presence/absence of SMARCB1; type: cell-based; conditions: 6 days culture, CellTiter-Glo, FIG. 3; result in words
Source text: Cytotoxic activity of a CBP/P300 inhibitor on SMARCB1 deficient cells, i.e., G-401 cells (malignant rhabdoid tumor derived), G-402 cells (malignant rhabdoid tumor derived), JMU-RTK-2 cells (malignant rhabdoid tumor derived), and HS-EU-1 cells (epithelioid sarcoma derived), and SMARCB1 wild-type cells, i.e., 786-O cells (renal cancer derived), VMRC-RCZ cells (renal cancer derived), Caki-1 cells (renal cancer derived), H446 cells (lung cancer derived), ES2 cells (ovarian cancer derived), H460 cells (lung cancer derived), H2228 cells (lung cancer derived), HEK293T cells (normal kidney tissue derived), and H358 cells (lung cancer derived) was compared.

[15] = read-out: JMU-RTK-2 + SMARCB1 IC50
[16] = read-out: JMU-RTK-2 IC50, JMU-RTK-2 cells, cultured for 6 days, CellTiter-Glo
[17] = read-out: IC50 G-401, G-401 cells, cultured for 3 days, CellTiter-Glo cell survival
[18] = read-out: JMU-RTK-2 + SMARCB1 IC50, JMU-RTK-2+SMARCB1 cells, cultured for 6 days, CellTiter-Glo

Sequence of recombinant p300 (Q09472 whole entry): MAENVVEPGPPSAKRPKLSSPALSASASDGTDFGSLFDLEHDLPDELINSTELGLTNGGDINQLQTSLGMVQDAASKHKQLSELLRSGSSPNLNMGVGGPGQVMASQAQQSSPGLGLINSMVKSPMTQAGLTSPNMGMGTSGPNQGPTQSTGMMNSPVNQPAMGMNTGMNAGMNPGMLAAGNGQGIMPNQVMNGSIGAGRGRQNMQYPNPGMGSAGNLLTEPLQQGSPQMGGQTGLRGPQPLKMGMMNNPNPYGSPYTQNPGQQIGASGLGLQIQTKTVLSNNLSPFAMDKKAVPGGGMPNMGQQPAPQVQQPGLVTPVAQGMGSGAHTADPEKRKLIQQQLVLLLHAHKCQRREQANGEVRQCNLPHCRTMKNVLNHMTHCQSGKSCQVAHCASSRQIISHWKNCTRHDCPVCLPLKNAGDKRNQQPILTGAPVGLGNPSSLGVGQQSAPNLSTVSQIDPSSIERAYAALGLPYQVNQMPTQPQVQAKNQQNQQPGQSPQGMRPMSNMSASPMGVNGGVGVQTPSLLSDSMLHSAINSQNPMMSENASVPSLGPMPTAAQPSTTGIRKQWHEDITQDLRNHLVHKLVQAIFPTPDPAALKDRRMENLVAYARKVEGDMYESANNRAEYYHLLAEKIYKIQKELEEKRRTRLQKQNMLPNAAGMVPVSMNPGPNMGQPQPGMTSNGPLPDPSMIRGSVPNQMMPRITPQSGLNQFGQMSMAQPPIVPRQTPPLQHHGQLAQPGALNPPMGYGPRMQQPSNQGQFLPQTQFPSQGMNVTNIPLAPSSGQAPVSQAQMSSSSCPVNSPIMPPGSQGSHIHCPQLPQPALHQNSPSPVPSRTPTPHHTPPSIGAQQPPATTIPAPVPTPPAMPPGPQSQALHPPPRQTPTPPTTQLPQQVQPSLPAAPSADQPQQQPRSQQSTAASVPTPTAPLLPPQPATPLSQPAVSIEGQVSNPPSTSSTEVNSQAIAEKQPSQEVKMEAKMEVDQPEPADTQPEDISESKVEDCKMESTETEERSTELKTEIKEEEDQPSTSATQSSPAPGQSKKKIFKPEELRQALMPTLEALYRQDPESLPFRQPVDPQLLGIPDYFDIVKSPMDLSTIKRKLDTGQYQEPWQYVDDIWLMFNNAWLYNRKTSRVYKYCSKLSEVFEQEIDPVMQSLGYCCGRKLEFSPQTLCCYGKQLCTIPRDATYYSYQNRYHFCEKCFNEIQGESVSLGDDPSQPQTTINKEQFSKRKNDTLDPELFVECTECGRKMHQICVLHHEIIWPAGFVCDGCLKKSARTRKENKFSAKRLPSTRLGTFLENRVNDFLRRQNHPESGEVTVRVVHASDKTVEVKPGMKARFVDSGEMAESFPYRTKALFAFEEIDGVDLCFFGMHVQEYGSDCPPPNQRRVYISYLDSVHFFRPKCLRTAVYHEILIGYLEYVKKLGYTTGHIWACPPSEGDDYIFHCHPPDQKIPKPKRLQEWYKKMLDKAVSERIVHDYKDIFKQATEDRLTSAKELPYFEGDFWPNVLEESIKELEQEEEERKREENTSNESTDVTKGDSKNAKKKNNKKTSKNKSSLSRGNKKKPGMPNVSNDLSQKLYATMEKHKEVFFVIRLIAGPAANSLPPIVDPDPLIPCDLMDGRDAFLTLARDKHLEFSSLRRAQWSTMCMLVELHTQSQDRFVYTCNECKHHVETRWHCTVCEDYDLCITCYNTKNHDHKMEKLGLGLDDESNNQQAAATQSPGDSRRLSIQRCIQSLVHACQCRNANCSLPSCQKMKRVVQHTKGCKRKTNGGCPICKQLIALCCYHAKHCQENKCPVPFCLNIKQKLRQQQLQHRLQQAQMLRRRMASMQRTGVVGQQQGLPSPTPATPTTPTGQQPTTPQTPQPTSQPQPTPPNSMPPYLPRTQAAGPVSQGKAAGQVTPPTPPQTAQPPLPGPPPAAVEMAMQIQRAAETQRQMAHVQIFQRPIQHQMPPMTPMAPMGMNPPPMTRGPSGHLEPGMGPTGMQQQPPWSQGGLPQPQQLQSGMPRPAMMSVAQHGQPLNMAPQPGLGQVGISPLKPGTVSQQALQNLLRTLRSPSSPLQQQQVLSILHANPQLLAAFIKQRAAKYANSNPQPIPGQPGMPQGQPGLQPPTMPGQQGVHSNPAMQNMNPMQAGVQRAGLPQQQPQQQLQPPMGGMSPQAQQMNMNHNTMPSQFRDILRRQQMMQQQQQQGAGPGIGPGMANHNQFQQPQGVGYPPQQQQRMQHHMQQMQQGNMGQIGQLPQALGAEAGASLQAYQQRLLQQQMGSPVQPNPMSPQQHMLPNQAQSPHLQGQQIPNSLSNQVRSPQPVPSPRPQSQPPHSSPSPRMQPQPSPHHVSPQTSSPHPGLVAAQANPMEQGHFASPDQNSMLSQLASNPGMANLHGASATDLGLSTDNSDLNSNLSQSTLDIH
Sequence of CBP bromodomain (Q92793 1085-1192): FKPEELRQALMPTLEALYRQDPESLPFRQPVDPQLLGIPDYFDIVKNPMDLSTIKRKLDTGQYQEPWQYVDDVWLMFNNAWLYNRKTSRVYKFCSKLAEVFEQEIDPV

Row | Compound | IC50 (recombinant p300) [nM] | IC50 [2] [nM] | IC50 ([3]; DMS114 cells) [nM] | IC50 [4] [nM] | viability at 10 µM [5] [%] | IC50 [5] [nM] | cell growth suppression effect on SMARCA2/A4 deficient cells [6] | IC50 ([7]; read-out: JMU-RTK-2 IC50) [nM] | Selective Index [7] | IC50 ([8]; read-out: IC50 G-401) [nM] | IC50 [9] [nM] | viability at 10 µM [9] [%] | IC50 [10, 15] [nM] | cell growth suppression effect on SMARCB1 deficient cells [11] | other results
1 | CO[C@H]1CC[C@H](n2c([C@@H]3CCCC(=O)N3c3ccc(F)c(F)c3)nc3cc(-c4c(C)noc4C)ccc32)CC1 [CCS-1477, reference compound] |  |  |  |  |  |  |  |  |  |  |  |  |  |  | IC50 value for the ARID1 deficient cancer cell group compared with the ARID1 wild-type cell group [1]: less than the IC50 value for the ARID1 wild-type cell group
2 | O=C(Nc1ccc2[nH]ncc2n1)C1CC(F)CN1C(=O)C1(c2ccc(OC(F)F)cc2)CCC(F)(F)CC1 (stereo not shown) [Compound 5] | 100 | 1420 | 408 | 1500 | 99 | > 10000 | particularly selective and potent cell growth suppression effect | 200 | 45.3 | 440 | > 10000 | 102 | 8800 | selective and potent Cell growth suppression effect | 
3 | CCN(CC)c1ccc(-c2nc3cc(C(=O)NC)ccc3n2Cc2ccn(CC)n2)cn1 [Compound 6] | 160 | 1130 | 138 | 729 | 92 | > 10000 | particularly selective and potent cell growth suppression effect | 55 | 23.5 | 260 | > 10000 | 83 | 1300 | selective and potent Cell growth suppression effect | 
4 | CNC(=O)N1CCc2c(c(N3CCCc4cc(-c5cnn(C)c5)c(C(F)F)cc43)nn2C2CCOCC2)C1 [Compound 8] |  | > 10000 | 4010 |  | 101 | > 10000 |  |  |  |  | > 10000 | 92 |  |  | cell survival rate (%) at treatment with 10 μM, H23 [2]: 77%; cell growth suppression effect on DMS114 cells [3]: cell growth suppression effect; cell survival rate (%) at treatment with 10 μM, TOV112D [4]: 91%; IC50 ([4]; TOV112D): > 10000 nM; IC50 [7, 16]: 900 nM; IC50 (CBP bromodomain): < 25 nM; cell survival rate (%) at treatment with 10 μM, G-401 [8]: 65%; IC50 [8, 17]: > 10000 nM; IC50 [10, 18]: 9100 nM
5 | Cn1cc(C(=O)Nc2ccc3c(c2)OCCO3)c2ccccc2c1=O [Compound 12] |  | > 10000 | > 10000 | > 10000 | 100 | > 10000 |  | 3900 | 3.9 | > 10000 | > 10000 | 104 | 14900 |  | cell survival rate (%) at treatment with 10 μM, H23 [2]: 97%; cell survival rate (%) at treatment with 10 μM, DMS114 ([3]; DMS114 cells, 10 μM, 6 days): 86%; cell growth suppression effect on DMS114 cells [3]: cell growth suppression effect; cell survival rate (%) at treatment with 10 μM, TOV112D [4]: 99%; IC50 (CBP bromodomain): < 25 nM; cell survival rate (%) at treatment with 10 μM, G-401 [8]: 83%
6 | C[C@H](N(Cc1ccc(F)cc1)C(=O)CN1C(=O)N[C@]2(CCc3cc(-c4cnn(C)c4)ccc32)C1=O)C(F)(F)F [Compound 14] |  | 1260 | 330 |  | 89 | > 10000 | particularly selective and potent cell growth suppression effect |  |  |  | > 10000 | 74 |  | selective and potent Cell growth suppression effect | IC50 ([4]; TOV112D): 1020 nM; IC50 [7, 16]: 12 nM; IC50 [8, 17]: 150 nM; IC50 [10, 18]: 5200 nM; IC50 [12]: 1300 nM
7 | Cn1cc(-c2ccc3c(c2)CC[C@]32NC(=O)N(CC(=O)N3Cc4cc(F)ccc4OC[C@H]3C(F)(F)F)C2=O)cn1 [Compound 15] | 48 | 407 | 90.9 | 309 | 78 | > 10000 | particularly selective and potent cell growth suppression effect | 3.8 | 912 | 41 | > 10000 | 51 | 3400 | selective and potent Cell growth suppression effect | IC50 [12]: 420 nM
8 | COc1ccc(CCc2nc3cc(-c4c(C)noc4C)ccc3n2C[C@H](C)N2CCOCC2)cc1Cl [SGC-CBP30, reference compound] |  |  |  |  |  |  |  |  |  |  |  |  |  |  | intracellular histone H3K27 acetylation [13]: reduced treatment concentration dependent intracellular histone H3K27 acetylation; IC50 value for the SMARCB1 deficient cell group compared with the SMARCB1 wild-type cell group [14]: less than the IC50 value for the SMARCB1 wild-type cell group
